Data reported in US20230263897A1, “CONJUGATE OF GALNAC AND SAPONIN, […] COMPOSITION COMPRISING SAID CONJUGATE AND A GALNAC-OLIGO[…]” (SAPREME TECHNOLOGIES B.V., priority 2020, published 2023).
pIC50: −log10 of the molar value. Read-outs that look alike come from different tables or passages of the source. [BNANC] = BNA^NC bridged nucleic acid sugar; d = 2'-deoxy (DNA)

Legend:
[1] = test system: primary human hepatocytes; assay: Cell viability assay (CTG) on primary human hepatocytes; settings: for pIC50 / effect on cell viability: primary human hepatocytes
Description: The ‘trivalent-GalNAc’ as depicted in FIGS. 1 and 8 is a typical (GalNAc)3Tris conjugate suitable for coupling to an effector molecule or to saponin. […] Primary hepatocytes express receptor at high density—allow for targeting.
Primary hepatocytes which highly express ASGPR1 (ASGPR1*) and hepatocyte cells of cell-line Huh7 (ASGPR1^+/−) were treated with a concentration range of trivalent-GalNAc-SO1861 (TrivalentGalNAc-SPT001), either or not in the presence of 10 μM CD71-saporin (monoclonal antibody OKT-9 targeting CD71 conjugated to the protein toxin saporin; FIG. 30D).
After treatment the cells were incubated for 72 hr at 37° C. before the cell viability was determined by a CTG-assay, performed according to the manufacturer's instruction (CellTiter-Glo® 2.0 Cell Viability Assay, Promega). Briefly, the cell plate was first equilibarated to RT for 30 minutes. Next, to each well containing 120 μL treatment media 120 μL CTG solution was added. The plate briefly mixed (10 sec, 600 rpm) and incubated for approximately 10 minutes in the dark at RT. Subsequently, the luminescence signal was measured on a Spectramax ID5 plate reader (Molecular Devices). For quantification, the background signal of ‘medium only’ wells was subtracted from all other wells before the cell viability percentage of treated/untreated cells was calculated by dividing the background corrected signal of treated wells over the background corrected signal of the untreated wells (×100).
Cryopreserved primary human hepatocytes (Cytes Biotechnologies S.L., Spain) were thawed in hepatocyte thawing media (Cytes Biotechnologies S.L., Spain). Cells were re-suspended in hepatocyte plating media (Cytes Biotechnologies S.L., Spain). Cells were seeded onto collagen-I coated plates at a density of 215.600 cells/well or 66.600 cells/well for the 48 or 96-well plates (Greiner BioOne). Cells were pre-cultured for 4-6 hrs at 37° C. allowing for cell attachment to cell culture plates before the start of treatment. Plating medium was replaced by 315 μl or 108 μl maintenance media (Cytes Biotechnologies S.L., Spain), after which conjugates were added from a 10× concentrated stock solution in PBS. Plates were incubated for 72 hr at 37° C. being harvested for gene expression and cell viability analysis.

ApoB [2] = assay: ApoB gene silencing (qPCR) in Huh7 cells; assay type: cell-based, human; settings: for pIC50: + 4000 nM trivalent-GalNAc-L-SO1861
Description: (§1) ApoB gene silencing in HepG2 (ASGPR1*) cells or Huh7 (ASPGR1^+/−) was determined. […] Thus, a conjugate comprising a labile bond between any two molecules forming the conjugate or comprised by the conjugate, will be cleaved at a position in the labile linker, therewith dissociating the two linked or bound molecules. An example is the cleavage of a hydrazone bond under acidic conditions as apparent in the endosome and lysosome of mammalian cells such as human cells.
(§2) ApoB gene silencing HepG2 (ASGPR1*) cells and Huh7 (ASPGR1^+/−) cells was determined.
(§3) RNA from cells was isolated and analysed according to standard protocols (Biorad). qPCR primers that were used are indicated in Table A2.

ApoB protein = ApoB protein expression by Huh7 cells; assay type: cell-based, human
ApoB RNA = ApoB RNA expression analysis on primary human hepatocytes; assay type: cell-based
Description: RNA from cells was isolated using TRI Reagent® Solution (Thermo Scientific) according to the manufacturer's instruction. Conversion into cDNA was performed using iScript™ cDNA Synthesis Kit (BioRad) using standard protocols. ApoB expression levels and levels of specific hepatocyte housekeeping genes were determined using quantitative real-time PCR assays (qRT-PCR) using iTaq™ Universal SYBR® Green Supermix (BioRad) and the Light Cycler 480 (Roche Diagnostics, Rotkreuz, Switzerland) with specific DNA primers, listed in Table A4. Analysis was done by the ΔCt method to determine ApoB expression relative to 2 hepatocyte-specific housekeeping control mRNAs. Each analysis reaction was performed in triplicate.

ApoB [3] = assay: ApoB gene silencing (qPCR) in HepG2 cells; assay type: cell-based, human
Description: as §1, §2, §3

HSP27 [4] = assay: HSP27 gene silencing (qPCR) in Huh7 cells; assay type: cell-based, human; settings: + 4000 nM SO1861-EMCH
Description: (§4) HSP27 gene silencing in HepG2 and Huh7 cells was determined.
as §3

HSP27 [5] = assay: HSP27 gene silencing (qPCR) in HepG2 cells; assay type: cell-based, human; settings: + 4000 nM SO1861-EMCH
Description: as §4, §3

[6] = + 4000 nM trivalent-GalNAc-L-SO1861

Molecule `CC(=O)OC1C(C)OC(OC2C(C)OC(OC(=O)[C@]34CCC(C)(C)CC3C3=CCC5[C@@]6(C)CC[C@H](OC7OC(C(=O)O)C(O)C(OC8OCC(O)C(O)C8O)C7OC7OC(CO)C(O)C(O)C7O)[C@@](C)(C=O)C6CC[C@@]5(C)[C@]3(C)C[C@H]4O)C(OC3OC(C)C(OC4OCC(O)C(OC5OC(CO)C(O)C(O)C5O)C4O)C(O)C3O)C2O)C(O)C1OC1OCC(O)C(O)C1O` (stereo partly shown) [SO1861, reference compound] has a pIC50 ([1]; read-out: SO1861 IC50 for CD71-saporin mediated cell killing, + 10 μM CD71-saporin (non-effective concentration)) of 6.70.

`CC(=O)OC1C(C)OC(OC2C(C)OC(OC(=O)[C@]34CCC(C)(C)CC3C3=CCC5[C@@]6(C)CC[C@H](OC7OC(C(=O)O)C(O)C(OC8OCC(O)C(O)C8O)C7OC7OC(CO)C(O)C(O)C7O)[C@@](C)(/C=N/NC(=O)CCCCCN7C(=O)C=CC7=O)C6CC[C@@]5(C)[C@]3(C)C[C@H]4O)C(OC3OC(C)C(OC4OCC(O)C(OC5OC(CO)C(O)C(O)C5O)C4O)C(O)C3O)C2O)C(O)C1OC1OCC(O)C(O)C1O` (stereo partly shown) [SO1861-EMCH] was tested, and the “factor of potency increase when cell viability of liver cells is considered” value ([1]; primary hepatocytes, + 10 μM CD71-saporin) was about 10 factor.

“TrivalentGalNAc-ApoBBNA: conjugate of trivalent GalNAc and the ApoB antisense BNA oligonucleotide ApoBBNA (SEQ ID NO: 2); L or S linker not stated (antisense GCCTCAGTCTGCTTCGCACC; sugars from the 5' end [BNANC]5 d10 [BNANC]5, all phosphorothioate, methylation of C not given here; trivalent GalNAc conjugated via linker, attachment via 5'-thiol C6 linker implied)” was tested, and the “lowering of ApoB mRNA expression” value (ApoB [2]; + 300 nM TrivalentGalNAc-SPT001, FIG. 31B) was “Neither TrivalentGalNAc-ApoBBNA, nor the combination of TrivalentGalNAc-ApoBBNA and TrivalentGalNAc-SPT001 induce lowering of the ApoB mRNA expression”, the “lowering of ApoB mRNA expression” value (ApoB [2]; alone, FIG. 31B) was “Neither TrivalentGalNAc-ApoBBNA, nor the combination of TrivalentGalNAc-ApoBBNA and TrivalentGalNAc-SPT001 induce lowering of the ApoB mRNA expression” and the “lowering of ApoB protein expression” value (ApoB protein; + 300 nM TrivalentGalNAc-SPT001, FIG. 32B) was “Neither TrivalentGalNAc-ApoBBNA, nor the combination of TrivalentGalNAc-ApoBBNA and TrivalentGalNAc-SPT001 induce lowering of the ApoB protein expression”. The “lowering of ApoB protein expression” value (ApoB protein; alone, FIG. 32B) was “Neither TrivalentGalNAc-ApoBBNA, nor the combination of TrivalentGalNAc-ApoBBNA and TrivalentGalNAc-SPT001 induce lowering of the ApoB protein expression”.

Work on “trivalent-GalNAc-L-ApoBBNA: ApoBBNA (SEQ ID NO: 2) conjugated to trivalent-GalNAc, labile conjugation, FIG. 6 (antisense GCCTCAGTCTGCTTCGCACC; BNA oligo, pattern not given here, trivalent GalNAc via labile linker, position not given here)” yielded a pIC50 (ApoB RNA; + 250 nM (GalNAc)3-SO1861) of 7.82, a pIC50 (ApoB RNA; + 2000 nM SO1861-EMCH) of 8.10 and a pIC50 (ApoB RNA; alone) of under 6.00. It also gave a pIC50 (ApoB [3]; + 4000 nM SO1861-EMCH) of 8.00, a pIC50 (ApoB [3]; [6]) of 7.30 and a pIC50 (ApoB [2]) of 6.15. The “effect on cell viability” value ([1]; + 250 nM (GalNAc)3-SO1861, FIG. 24 B) was “without affecting cell viability significantly”, the “effect on cell viability” value ([1]; alone, FIG. 24 B) was “no effects on cell viability were observed” and the pIC50 ([1]; read-out: IC50 decreased cell viability, + 2000 nM SO1861-EMCH, FIG. 24 B) was 6.22.

Molecule “trivalent-GalNAc-L-HSP27BNA: HSP27BNA (SEQ ID NO: 1) conjugated to trivalent-GalNAc, labile conjugation, FIG. 6 (antisense GGCACAGCCAGTGGCG; sugars from the 5' end [BNANC]3 d10 [BNANC]3, all phosphorothioate, methylation of C not given here; further chemistry not fully specified)” has a pIC50 (HSP27 [4]) of 8.52 and a pIC50 (HSP27 [5]) of 10.00.

“trivalent-GalNAc-S-ApoBBNA: ApoBBNA (SEQ ID NO: 2) conjugated to trivalent-GalNAc, stable conjugation, FIG. 7 (antisense GCCTCAGTCTGCTTCGCACC; sugars from the 5' end [BNANC]5 d10 [BNANC]5, all phosphorothioate, methylation of C not given here; further chemistry not fully specified)” gave a pIC50 (ApoB [3]; + 4000 nM SO1861-EMCH) of 8.00, a pIC50 (ApoB [3]; [6]) of 7.30 and a pIC50 (ApoB [2]) of 6.15.

Work on “trivalent-GalNAc-S-HSP27BNA: HSP27BNA (SEQ ID NO: 1) conjugated to trivalent-GalNAc, stable conjugation, FIG. 7 (GGCACAGCCAGTGGCG; sugars from the 5' end [BNANC]3 d10 [BNANC]3, all phosphorothioate, methylation of C not given here; further chemistry not fully specified)” yielded a pIC50 (HSP27 [4]) of 8.52 and a pIC50 (HSP27 [5]) of 10.00.
